Laboratory results: patent US20220281930A1, “COMPOSITIONS AND METHODS FOR THE TREATMENT OF PATHOLOGICAL PAIN AND ITCH” (DUKE UNIVERSITY, priority 2019, published 2022)

Legend:
[1] = system: KCC2; assay: Immuno-cytochemistry morphometry of primary human cortical neurons, KCC2; type: cell-based; settings: 400 nM KP
Protocol: The neuron-enriched cultures were established from fetal cortical specimens at 15-20 weeks of gestation. The protocols for tissue processing complied with all federal and institutional guidelines. The cultures were plated on PEI (polyethyleneimine solution) substrate and maintained in Neurobasal media supplemented with B27 as previously described (Pelsman et al., 2003, International journal of developmental neuroscience 21:117-124; Yeo et al., 2013, Proc Natl Acad Sci USA 110:4315-4320).
For immunostaining, the cultures were treated for 2-4 days with vehicle or 400 nM KP, fixed with 4% PFA at day 10, and processed for double-staining with anti-KCC2 and anti-synaptophysin or anti-NeuN (see Table 1).
The 0.34 micrometer confocal slices through entire cell layers at different optical fields (n=17-28 for each group) of the fixated cultures were acquired using a Zeiss LSM700 confocal microscope.
Image Z-stacks were analyzed using Imaris 9.2.1 software. Optical density intensity sum values for each stack/channel were divided by corresponding data volumes and the resulting values were normalized to the number of specifically labeled cells within each stack. There were no significant differences in the number of cells between vehicle and KP-treated groups.

[2] = system: ß-cat; assay: ß-cat nuclear translocation in primary neurons, immunolabeling; type: cell-based, rat; settings: KP treatment
Protocol: Immunocytochemistry labeling of cultured neuronal cells was carried out as previously described (Liedtke et al., 2013, Small 9, 1066-1075; Yeo et al., 2009, J Neurosci 29:14652-14662; Yeo et al., 2013, Proc Natl Acad Sci USA 110:4315-4320). Primary antibodies are shown in the antibody table. Anti-KCC2 primary antibodies were validated with developing rat primary cortical neurons; we observed an increase in staining pattern that tightly matched increase of KCC2 mRNA expression (Liedtke et al., 2013, Small 9:1066-1075; Yeo et al., 2009, J Neurosci 29:14652-14662.; Yeo et al., 2013, Proc Natl Acad Sci USA 110:4315-4320). Secondary antibodies used were goat anti-mouse IgG Alexa Fluor 594 (Invitrogen A11032) and goat anti-rabbit IgG Alexa Fluor 594 (Invitrogen A11012). DAPI stain was obtained from Sigma Aldrich (D9542). Stained cells were observed using an inverted confocal microscope (Zeiss LSM780).
We obtained stacks of images recorded at 0.35 μm intervals through separate channels with a 63× oil-immersion lens (NA, 1.40, refraction index, 1.45). Zen software (Zeiss) was used to construct composite images from each optical series by combining the images recorded through the different channels, and the same software was used to obtain Z projection images (image resolution: 1024×1024 pixels; pixel size: 0.11 μm). ImageJ was used for morphometry. […]

[3] = target: GSK3ß (Homo sapiens, UniProt P49841); settings: literature; cited from earlier work
Chain of GSK3ß (P49841 whole entry): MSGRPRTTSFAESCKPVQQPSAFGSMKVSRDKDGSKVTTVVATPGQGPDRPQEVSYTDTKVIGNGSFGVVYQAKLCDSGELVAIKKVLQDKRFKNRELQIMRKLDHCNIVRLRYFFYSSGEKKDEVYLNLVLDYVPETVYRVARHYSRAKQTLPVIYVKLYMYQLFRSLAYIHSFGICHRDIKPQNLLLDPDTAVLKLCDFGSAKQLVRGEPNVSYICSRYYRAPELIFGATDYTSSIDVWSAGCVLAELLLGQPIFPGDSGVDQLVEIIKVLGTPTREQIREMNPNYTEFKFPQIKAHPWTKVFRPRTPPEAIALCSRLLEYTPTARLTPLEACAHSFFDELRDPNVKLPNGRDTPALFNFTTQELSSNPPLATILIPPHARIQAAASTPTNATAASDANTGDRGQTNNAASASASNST

O=C1Cc2c([nH]c3ccc(Br)cc23)-c2ccccc2N1 [kenpaullone, 9-bromo-7,12-dihydro-indolo [3,2-d] [1]benzazepin-6(5H)-one]
increased KCC2 expression relative to vehicle [1]: 62% | catenin translocation into the nucleus (FIG. 9) [2]: significantly increases | potency of GSK3ß inhibition among known targets [3]: highest potency
